What was measured:
[1] = tested on: CMK; assay: Secondary dose-response HTS, Cell Titer Glo; format: cell-based, human; conditions: Homo sapiens; secondary high-throughput screen; CMK; read-out: average effective concentration, CMK
[2] = tested on: CMS; assay: Secondary dose-response HTS, Cell Titer Glo; format: cell-based, human; conditions: Homo sapiens, HTS; secondary high-throughput screen; CMS; read-out: average effective concentration, CMS
[3] = tested on: MOLM-13; assay: cells; parameters: species or system AML cell lines (8); Secondary HTS, 10-point dose-response in triplicate, Cell Titer Glo viability, four-parameter fit EC50; conditions: Homo sapiens, MOLM-13, 72 h, read-out: MOLM-13
[4] = tested on: MV4-11; assay: cells; parameters: species or system AML cell lines (8); Secondary HTS, 10-point dose-response in triplicate, Cell Titer Glo viability, four-parameter fit EC50; conditions: Homo sapiens, MV4-11, 72 h, read-out: MV4-11
[5] = tested on: CHRF288-11; assay: cells; parameters: species or system AML cell lines (8); Secondary HTS, 10-point dose-response in triplicate, Cell Titer Glo viability, four-parameter fit EC50; conditions: 72 h, read-out: CHRF288-11
[6] = tested on: M07e; assay: cells; parameters: species or system AML cell lines (8); Secondary HTS, 10-point dose-response in triplicate, Cell Titer Glo viability, four-parameter fit EC50; conditions: M-07e, 72 h, read-out: M07e
[7] = tested on: ML-2; assay: cells; parameters: species or system AML cell lines (8); Secondary HTS, 10-point dose-response in triplicate, Cell Titer Glo viability, four-parameter fit EC50; conditions: Homo sapiens, ML-2, 72 h, read-out: ML-2
[8] = tested on: U937; assay: cells; parameters: species or system AML cell lines (8); Secondary HTS, 10-point dose-response in triplicate, Cell Titer Glo viability, four-parameter fit EC50; conditions: Homo sapiens, U-937, 72 h, read-out: U937
[9] = tested on: MV4-11; assay: Secondary dose-response HTS, Cell Titer Glo; format: cell-based, human; conditions: Homo sapiens; secondary high-throughput screen; MV4-11; read-out: average effective concentration, MV4-11
[10] = tested on: CMK; assay: cells; parameters: species or system AML cell lines (8); Secondary HTS, 10-point dose-response in triplicate, Cell Titer Glo viability, four-parameter fit EC50; conditions: Homo sapiens, CMK, 72 h, read-out: CMK
[11] = tested on: CMS; assay: cells; parameters: species or system AML cell lines (8); Secondary HTS, 10-point dose-response in triplicate, Cell Titer Glo viability, four-parameter fit EC50; conditions: 72 h, read-out: CMS
[12] = tested on: CHRF288-11; parameters: species or system AML cell lines (8); Primary HTS, single concentration about 10 uM, Cell Titer Glo viability; log10 luminescence, per cent inhibition relative to cycloheximide control; conditions: 72 h, relative to cycloheximide control, log10 luminescence; inhibitor
[13] = tested on: CMK; parameters: species or system AML cell lines (8); Primary HTS, single concentration about 10 uM, Cell Titer Glo viability; log10 luminescence, per cent inhibition relative to cycloheximide control; conditions: 72 h, relative to cycloheximide control, log10 luminescence; inhibitor
[14] = tested on: CMS; parameters: species or system AML cell lines (8); Primary HTS, single concentration about 10 uM, Cell Titer Glo viability; log10 luminescence, per cent inhibition relative to cycloheximide control; conditions: 72 h, relative to cycloheximide control, log10 luminescence; inhibitor
[15] = tested on: M07e; parameters: species or system AML cell lines (8); Primary HTS, single concentration about 10 uM, Cell Titer Glo viability; log10 luminescence, per cent inhibition relative to cycloheximide control; conditions: 72 h, relative to cycloheximide control, log10 luminescence; inhibitor
[16] = tested on: ML-2; parameters: species or system AML cell lines (8); Primary HTS, single concentration about 10 uM, Cell Titer Glo viability; log10 luminescence, per cent inhibition relative to cycloheximide control; conditions: 72 h, relative to cycloheximide control, log10 luminescence; inhibitor
[17] = tested on: MOLM-13; parameters: species or system AML cell lines (8); Primary HTS, single concentration about 10 uM, Cell Titer Glo viability; log10 luminescence, per cent inhibition relative to cycloheximide control; conditions: 72 h, relative to cycloheximide control, log10 luminescence; inhibitor
[18] = tested on: MV4-11; parameters: species or system AML cell lines (8); Primary HTS, single concentration about 10 uM, Cell Titer Glo viability; log10 luminescence, per cent inhibition relative to cycloheximide control; conditions: 72 h, relative to cycloheximide control, log10 luminescence; inhibitor
[19] = tested on: U937; parameters: species or system AML cell lines (8); Primary HTS, single concentration about 10 uM, Cell Titer Glo viability; log10 luminescence, per cent inhibition relative to cycloheximide control; conditions: 72 h, relative to cycloheximide control, log10 luminescence; inhibitor

Structure (SMILES) | EC50 [1] | EC50 [2] | EC50 [3] | EC50 [4] | EC50 [5] | EC50 [6] | EC50 [7] | EC50 [8] | EC50 [9] | EC50 [10] | EC50 [11] | CHRF288-11 %inh [12] | CMK %inh [13] | CMS %inh [14] | M07e %inh [15] | ML-2 %inh [16] | MOLM-13 %inh [17] | MV4-11 %inh [18] | U937 %inh [19]
Cc1cc(Nc2nc(N[C@@H](C)c3ncc(F)cn3)ncc2Cl)n[nH]1 [AZD1480] | > 10 µM | 3.3 µM | > 10 µM | > 10 µM | > 10 µM | > 10 µM | > 10 µM | > 10 µM |  |  |  |  |  |  |  |  |  |  | 
NC(=O)[C@@H](CCC(F)(F)F)N(Cc1ccc(-c2ncon2)cc1F)S(=O)(=O)c1ccc(Cl)cc1 [BMS-708163] |  |  | > 10 µM |  | > 10 µM | > 10 µM | > 10 µM | > 10 µM | > 10 µM | > 10 µM | > 10 µM |  |  |  |  |  |  |  | 
O=c1[nH]cc(F)c(=O)[nH]1 [Compound 5-FLUOROURACIL] |  |  | > 10 µM |  | > 10 µM | > 10 µM | > 10 µM | > 10 µM | > 10 µM | > 10 µM | > 10 µM |  |  |  |  |  |  |  | 
C[C@]1(O)C[C@@H](c2nc(-c3ccc4ccc(-c5ccccc5)nc4c3)c3c(N)nccn32)C1 [LINSITINIB] |  |  | > 10 µM |  | > 10 µM | > 10 µM | > 10 µM | > 10 µM | > 10 µM | > 10 µM | > 10 µM | 34.61% | 18.57% | 2.626% | 2.638% | 11.6% | 2.501% | 7.816% | 2.082%
COc1ccc([C@@]23Oc4cc(OC)cc(OC)c4[C@]2(O)[C@H](O)[C@H](C(=O)N(C)C)[C@H]3c2ccccc2)cc1 [SJ000834151, ROCAGLAMIDE A] |  |  | 0.018 µM | > 10 µM | 0.014 µM | 0.031 µM | 0.044 µM | 0.053 µM |  | 0.021 µM | 0.017 µM |  |  |  |  |  |  |  | 
CN1CCN(c2cc(C(=O)Nc3ccc4c(c3)-c3c(c(C(N)=O)nn3-c3ccc(F)cc3)CC4)c(Cl)cn2)CC1 [SJ000834153, PHA 408] |  |  | > 10 µM | > 10 µM | > 10 µM | 5.2 µM | > 10 µM | 9.2 µM |  | > 10 µM | > 10 µM |  |  |  |  |  |  |  | 
Nc1nc(NC2CC2)cc(-c2cccc(Cl)c2Cl)n1 [SJ000834160, TH588] |  |  | > 10 µM | > 10 µM | > 10 µM | > 10 µM | 10 µM | 3 µM |  | 4.8 µM | > 10 µM |  |  |  |  |  |  |  | 
O=c1cc(N2CCOCC2)oc2c1ccc1ccccc12 [SJ000834163, NU 7026] |  |  | > 10 µM | > 10 µM | > 10 µM | > 10 µM | > 10 µM | > 10 µM |  | > 10 µM | > 10 µM |  |  |  |  |  |  |  | 
Cc1ccc(S(=O)(=O)/C=C/C#N)cc1 [SJ000834165, BAY 11-7082] |  |  | 1.3 µM | 1.8 µM | 1.8 µM | 3.3 µM | 0.68 µM | 0.5 µM |  | 4.5 µM | 3.6 µM |  |  |  |  |  |  |  | 
COc1cc(C(=O)NC2CCN(C)CC2)c(F)cc1Nc1ncc2c(n1)N(C1CCCC1)CC(F)(F)C(=O)N2C [TAK-960] |  |  | > 10 µM | > 10 µM | > 10 µM | > 10 µM | > 10 µM | > 10 µM |  | > 10 µM | > 10 µM |  |  |  |  |  |  |  | 
CC1(C)CCC(C)(C)c2cc(NC(=O)c3ccc(C(=O)O)cc3)ccc21 [TAMIBAROTENE] |  |  | > 10 µM | > 10 µM | > 10 µM | > 10 µM | > 10 µM | > 10 µM |  | > 10 µM | > 10 µM |  |  |  |  |  |  |  | 
CCOC(=O)c1ccc(C#Cc2ccc3c(c2)C(C)(C)CCS3)nc1 [TAZAROTENE] |  |  | > 10 µM | > 10 µM | > 10 µM | > 10 µM | > 10 µM | > 10 µM |  | > 10 µM | > 10 µM |  |  |  |  |  |  |  | 
Cn1nnc2c(C(N)=O)ncn2c1=O [TEMOZOLOMIDE] |  |  | > 10 µM | > 10 µM | > 10 µM | > 10 µM | > 10 µM | > 10 µM |  | > 10 µM | > 10 µM |  |  |  |  |  |  |  | 
CO[C@H]1C[C@@H]2CC[C@@H](C)[C@@](O)(O2)C(=O)C(=O)N2CCCC[C@H]2C(=O)O[C@H]([C@H](C)C[C@@H]2CC[C@@H](OC(=O)C(C)(CO)CO)[C@H](OC)C2)CC(=O)[C@H](C)/C=C(\C)[C@@H](O)[C@@H](OC)C(=O)[C@H](C)C[C@H](C)/C=C/C=C/C=C/1C [TEMSIROLIMUS] |  |  | > 10 µM | > 10 µM | > 10 µM | > 10 µM | > 10 µM | > 10 µM |  | > 10 µM | > 10 µM |  |  |  |  |  |  |  | 
COc1cc2nccc(Oc3ccc(NC(=O)Nc4cc(C)on4)c(Cl)c3)c2cc1OC [TIVOZANIB] |  |  | > 10 µM |  | > 10 µM | > 10 µM | > 10 µM | > 10 µM | 7.8 µM | > 10 µM | > 10 µM |  |  |  |  |  |  |  | 
CC1=C(/C=C/C(C)=C/C=C/C(C)=C/C(=O)O)C(C)(C)CCC1 [TRETINOIN] |  |  | > 10 µM | > 10 µM | > 10 µM | > 10 µM | > 10 µM | > 10 µM |  | > 10 µM | > 10 µM |  |  |  |  |  |  |  | 
C[C@]1(c2nc3c(C(N)=O)cccc3[nH]2)CCCN1 [VELIPARIB] |  |  | > 10 µM | > 10 µM | > 10 µM | > 10 µM | > 10 µM | > 10 µM |  | > 10 µM | > 10 µM |  |  |  |  |  |  |  | 
CCCS(=O)(=O)Nc1ccc(F)c(C(=O)c2c[nH]c3ncc(-c4ccc(Cl)cc4)cc23)c1F [VEMURAFENIB] |  |  | > 10 µM | > 10 µM | > 10 µM | > 10 µM | > 10 µM | > 10 µM |  | > 10 µM | > 10 µM |  |  |  |  |  |  |  | 
CS(=O)(=O)c1ccc(C(=O)Nc2ccc(Cl)c(-c3ccccn3)c2)c(Cl)c1 [VISMODEGIB] |  |  | > 10 µM | > 10 µM | > 10 µM | > 10 µM | > 10 µM | > 10 µM |  | > 10 µM | > 10 µM |  |  |  |  |  |  |  | 
COc1ccc(Cl)c(Nc2nc3ccccc3nc2NS(=O)(=O)c2cccc(NC(=O)C(C)(C)N)c2)c1 [XL147] |  |  | > 10 µM | > 10 µM | > 10 µM | > 10 µM | > 10 µM | > 10 µM |  | > 10 µM | > 10 µM |  |  |  |  |  |  |  | 
FC(F)c1nc2ccccc2n1-c1nc(N2CCOCC2)nc(N2CCOCC2)n1 [ZSTK-474] |  |  | > 10 µM | > 10 µM | > 10 µM | > 10 µM | > 10 µM | > 10 µM |  | > 10 µM | > 10 µM |  |  |  |  |  |  |  | 

— PMC6522510 (Nature Communications, 2019)
